Results on 30 compounds are retold here after patent US10544143B2, “4-azaindole compounds” (BRISTOL-MYERS SQUIBB COMPANY, priority 2017, dated 2020).

Like-named read-outs stand apart in the source and are kept apart here.

In one experiment the target is human TLR7 (Homo sapiens (Human), UniProt Q9NYK1). Put plainly: TLR7 inhibition reporter assay (HEK-Blue SEAP). It counts as cell-based. Conditions: HEK-Blue human TLR7 cells, gardiquimod 7.5 μM.
Another experiment deals with human TLR8 (Homo sapiens (Human), UniProt Q9NR97). The experiment is described as follows: TLR8 inhibition reporter assay (HEK-Blue SEAP).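 Also: SEAP driven by IFN-β minimal promoter carrying NF-κB and AP-1 sites, compounds dosed 0.05 nM to 50 µM for 22 h, inhibition scaled between agonist-plus-DMSO and reference-inhibitor wells.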 To be noted: R848 15.9 μM. In general terms: Reporter assays use an easily measured gene product as a stand-in for the process of interest.
human TLR8, sequence (Q9NR97 27-1041): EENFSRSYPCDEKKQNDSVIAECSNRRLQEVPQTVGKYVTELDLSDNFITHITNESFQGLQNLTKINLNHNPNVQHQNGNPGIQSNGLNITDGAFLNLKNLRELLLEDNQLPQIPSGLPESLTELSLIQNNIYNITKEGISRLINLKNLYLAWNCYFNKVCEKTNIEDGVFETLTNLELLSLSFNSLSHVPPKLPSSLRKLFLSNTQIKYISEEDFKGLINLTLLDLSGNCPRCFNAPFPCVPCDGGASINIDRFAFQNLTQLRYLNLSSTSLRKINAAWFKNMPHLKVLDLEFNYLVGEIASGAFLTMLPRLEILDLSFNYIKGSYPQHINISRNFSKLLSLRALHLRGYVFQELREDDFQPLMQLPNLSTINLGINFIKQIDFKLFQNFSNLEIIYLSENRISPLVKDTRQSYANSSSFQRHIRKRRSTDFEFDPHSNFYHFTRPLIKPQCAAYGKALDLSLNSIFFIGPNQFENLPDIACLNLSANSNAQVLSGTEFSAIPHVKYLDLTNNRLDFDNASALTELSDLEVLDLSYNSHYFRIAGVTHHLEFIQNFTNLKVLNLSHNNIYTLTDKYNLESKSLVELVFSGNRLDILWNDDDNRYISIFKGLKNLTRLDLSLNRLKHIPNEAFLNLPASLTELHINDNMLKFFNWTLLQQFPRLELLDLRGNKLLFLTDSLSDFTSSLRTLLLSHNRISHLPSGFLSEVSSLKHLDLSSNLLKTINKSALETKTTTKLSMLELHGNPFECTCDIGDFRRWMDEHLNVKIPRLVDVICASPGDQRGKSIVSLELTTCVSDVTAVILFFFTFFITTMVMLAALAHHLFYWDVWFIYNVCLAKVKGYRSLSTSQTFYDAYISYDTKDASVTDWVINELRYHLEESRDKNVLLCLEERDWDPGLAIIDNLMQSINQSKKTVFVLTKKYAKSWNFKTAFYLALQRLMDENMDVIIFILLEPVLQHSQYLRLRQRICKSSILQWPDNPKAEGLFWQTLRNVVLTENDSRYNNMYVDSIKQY
The target in a further experiment is human TLR9 (Homo sapiens (Human), UniProt Q9NR96). Put plainly: TLR9 inhibition reporter assay (HEK-Blue SEAP).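 Also: SEAP driven by an IFN-β minimal promoter with NF-κB and AP-1 sites, read after 22 h, compounds dosed 0.05 nM–50 µM, inhibition scaled between agonist plus DMSO and reference-inhibitor wells.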 Conditions: ODN2006 5 nM.
human TLR9, sequence (Q9NR96 26-1032): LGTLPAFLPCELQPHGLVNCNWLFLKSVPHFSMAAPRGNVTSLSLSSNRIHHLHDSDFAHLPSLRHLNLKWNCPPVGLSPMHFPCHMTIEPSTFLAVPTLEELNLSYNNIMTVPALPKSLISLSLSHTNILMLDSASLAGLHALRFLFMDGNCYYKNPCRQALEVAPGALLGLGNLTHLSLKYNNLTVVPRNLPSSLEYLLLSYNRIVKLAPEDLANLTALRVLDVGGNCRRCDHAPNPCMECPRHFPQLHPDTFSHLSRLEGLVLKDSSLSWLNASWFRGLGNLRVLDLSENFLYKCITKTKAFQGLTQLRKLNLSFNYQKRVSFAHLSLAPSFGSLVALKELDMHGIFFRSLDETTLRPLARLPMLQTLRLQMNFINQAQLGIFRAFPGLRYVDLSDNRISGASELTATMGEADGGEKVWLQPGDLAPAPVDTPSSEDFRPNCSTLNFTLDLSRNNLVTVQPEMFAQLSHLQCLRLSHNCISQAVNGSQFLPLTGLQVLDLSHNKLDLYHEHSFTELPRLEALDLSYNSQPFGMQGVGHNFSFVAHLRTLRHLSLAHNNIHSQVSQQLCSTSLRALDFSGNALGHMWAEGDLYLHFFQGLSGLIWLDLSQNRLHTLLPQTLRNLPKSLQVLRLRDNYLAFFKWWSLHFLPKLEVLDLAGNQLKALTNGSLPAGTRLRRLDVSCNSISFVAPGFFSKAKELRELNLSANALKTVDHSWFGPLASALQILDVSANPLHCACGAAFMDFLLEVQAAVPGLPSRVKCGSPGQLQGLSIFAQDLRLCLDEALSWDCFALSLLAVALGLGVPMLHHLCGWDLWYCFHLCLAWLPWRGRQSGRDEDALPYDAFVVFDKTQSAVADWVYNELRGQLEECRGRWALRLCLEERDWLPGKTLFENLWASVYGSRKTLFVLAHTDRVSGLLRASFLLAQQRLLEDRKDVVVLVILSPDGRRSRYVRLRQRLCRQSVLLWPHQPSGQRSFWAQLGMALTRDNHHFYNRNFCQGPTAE
Where [1] appears, read: read-out: TLR8 IC50, HEK-Blue human TLR8 cells.
[2] abbreviates: read-out: TLR9 IC50, HEK-Blue human TLR9 cells.

human TLR7, sequence (Q9NYK1 27-1049): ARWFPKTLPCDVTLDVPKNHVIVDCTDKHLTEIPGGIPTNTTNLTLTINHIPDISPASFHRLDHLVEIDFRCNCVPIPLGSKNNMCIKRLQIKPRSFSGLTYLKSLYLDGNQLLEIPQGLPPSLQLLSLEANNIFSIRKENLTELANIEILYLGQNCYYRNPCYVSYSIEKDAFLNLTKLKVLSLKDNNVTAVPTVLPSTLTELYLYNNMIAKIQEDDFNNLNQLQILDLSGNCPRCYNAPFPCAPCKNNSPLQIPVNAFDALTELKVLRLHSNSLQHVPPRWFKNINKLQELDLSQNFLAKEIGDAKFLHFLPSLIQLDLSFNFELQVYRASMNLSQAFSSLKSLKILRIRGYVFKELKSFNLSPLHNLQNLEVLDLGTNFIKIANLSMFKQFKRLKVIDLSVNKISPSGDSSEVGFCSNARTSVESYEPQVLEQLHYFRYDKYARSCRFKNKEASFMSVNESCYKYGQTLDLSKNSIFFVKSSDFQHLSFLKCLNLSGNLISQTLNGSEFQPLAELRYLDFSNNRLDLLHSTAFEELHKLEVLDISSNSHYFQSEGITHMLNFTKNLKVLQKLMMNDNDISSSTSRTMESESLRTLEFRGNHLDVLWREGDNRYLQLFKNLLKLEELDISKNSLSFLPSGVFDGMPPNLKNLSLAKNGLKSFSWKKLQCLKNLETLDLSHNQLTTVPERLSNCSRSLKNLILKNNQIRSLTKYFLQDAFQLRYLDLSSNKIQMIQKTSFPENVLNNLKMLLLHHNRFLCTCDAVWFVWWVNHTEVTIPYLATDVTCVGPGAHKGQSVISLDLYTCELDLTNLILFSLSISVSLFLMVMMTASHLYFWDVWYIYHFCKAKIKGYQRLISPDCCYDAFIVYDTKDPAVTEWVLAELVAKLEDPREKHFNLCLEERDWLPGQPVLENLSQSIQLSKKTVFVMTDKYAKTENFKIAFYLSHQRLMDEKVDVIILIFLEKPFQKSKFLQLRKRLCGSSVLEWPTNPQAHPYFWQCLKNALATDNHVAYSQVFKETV
Experimental for human TLR7: HEK-Blue™-cells (Invivogen) overexpressing human TLR7, TLR8 or TLR9 receptors were used for screening inhibitors of these receptors using an inducible SEAP (secreted embryonic alkaline phosphatase) reporter gene under the control of the IFN-β minimal promoter fused to five NF-κB and AP-1-binding sites. Briefly, cells are seeded into Greiner 384 well plates (15000 cells per well for TLR7, 20,000 for TLR8 and 25,000 for TLR9) and then treated with test compounds in DMSO to yield a final dose response concentration range of 0.05 nM-50 μM. After a 30 minute compound pre-treatment at room temperature, the cells are then stimulated with a TLR7 ligand (gardiquimod at a final concentration of 7.5 μM), TLR8 ligand (R848 at a final concentration of 15.9 μM) or TLR9 ligand (ODN2006 at a final concentration of 5 nM) to activate NF-κB and AP-1 which induce the production of SEAP. After a 22 hour incubation at 37° C., 5% CO2, SEAP levels are determined with the addition of HEK-Blue™ Detection reagent (Invivogen), a cell culture medium that allows for detection of SEAP, according to manufacturer's specifications.

The term IC50 denotes the concentration that inhibits the measured activity by half. On to `Cc1c(-c2[nH]c3ccc(N4CCN(C(=O)CCN(C)C)C[C@H]4C)nc3c2C(C)C)cn2ncnc2c1C` [Example 823], for which the 50% inhibitory concentration (IC50) at human TLR7 worked out at 0.49 nM; at human TLR8 (setting [1]), 1.2 nM; on human TLR9 (setting [2]) it was 6930 nM.
`Cc1c(-c2[nH]c3ccc(N4CCN(C(=O)CN5CCC5)C[C@@H]4C)nc3c2C(C)C)cn2ncnc2c1C` [Example 824]: the half-maximal inhibitory concentration (IC50) at human TLR7 is 1.6 nM; on human TLR8 (setting [1]), 2.1 nM; on human TLR9 (setting [2]) it was 5790 nM.
Regarding `Cc1c(-c2[nH]c3ccc(N4CCN(C(=O)CN5CCCC5)C[C@@H]4C)nc3c2C(C)C)cn2ncnc2c1C` [Example 825], the IC50 is 0.53 nM on human TLR7, 1.1 nM at human TLR8 (setting [1]) and 6280 nM at human TLR9 (setting [2]).
`Cc1c(-c2[nH]c3ccc(N4CCN(C(=O)CNC5CC5)C[C@@H]4C)nc3c2C(C)C)cn2ncnc2c1C` [Example 826]: the IC50 on human TLR7 was determined as 0.7 nM; at human TLR8 (setting [1]), 1 nM; on human TLR9 (setting [2]), 15700 nM.
For `Cc1c(-c2[nH]c3ccc(N4CCN(C(=O)CNC(C)C)C[C@@H]4C)nc3c2C(C)C)cn2ncnc2c1C` [Example 827], in that order: 0.46 nM, 0.34 nM and 4850 nM.
For `Cc1c(-c2[nH]c3ccc(N4CCN(C(=O)C5CN(C)C5)CC4)nc3c2C(C)C)cn2ncnc2c1C` [Example 828] the same measures were 0.88 nM, 1.4 nM and 7160 nM.
`Cc1c(-c2[nH]c3ccc(N4CCN(C(=O)C5CN(C)C5)C[C@@H]4C)nc3c2C(C)C)cn2ncnc2c1C` [Example 829]: the half-maximal inhibitory concentration (IC50) against human TLR7 stood at 3.7 nM; on human TLR8 (setting [1]) it was 12 nM; at human TLR9 (setting [2]), 17300 nM.
For `CNCC(=O)N1CCN(c2ccc3[nH]c(-c4cn5ncnc5c(C)c4C)c(C(C)C)c3n2)CC1` [Example 830] the same measures were 0.62 nM, 0.63 nM and 7440 nM.
For `Cc1c(-c2[nH]c3ccc(N4CCN(C(=O)CN)CC4)nc3c2C(C)C)cn2ncnc2c1C` [Example 832] the same measures were 4 nM, 2.3 nM and 16800 nM.
For `Cc1c(-c2[nH]c3ccc(N4CCN(C(C)C)C[C@H]4C)nc3c2C(C)C)cn2ncnc2c1C` [Example 833] the same measures were 1.9 nM, 4.9 nM and 9780 nM.
Turning to `Cc1c(-c2[nH]c3ccc(N4CCN(C(=O)CN5CCC5)C[C@H]4C)nc3c2C(C)C)cn2ncnc2c1C` [Example 834], the results for the half-inhibitory concentration (IC50) against human TLR7, at human TLR8 (setting [1]) and on human TLR9 (setting [2]) were 0.46 nM, 2.5 nM and 4370 nM, respectively.
For `Cc1c(-c2[nH]c3ccc(N4CCN(C(=O)CN5CCCC5)C[C@H]4C)nc3c2C(C)C)cn2ncnc2c1C` [Example 835], in that order: 0.7 nM, 4.1 nM and 5560 nM.
For `Cc1c(-c2[nH]c3ccc(N4CCN(C(=O)CNC5CC5)C[C@H]4C)nc3c2C(C)C)cn2ncnc2c1C` [Example 836], in that order: 2.4 nM, 4.1 nM and 16400 nM.
`Cc1c(-c2[nH]c3ccc(N4CCN(C(=O)CNC(C)C)C[C@H]4C)nc3c2C(C)C)cn2ncnc2c1C` [Example 837]: the IC50 stood at 0.7 nM on human TLR7, 1.6 nM at human TLR8 (setting [1]) and 7820 nM on human TLR9 (setting [2]).
For the compound `[2H]C([2H])([2H])N(CC(=O)N1CCN(c2ccc3[nH]c(-c4cn5ncnc5c(C)c4C)c(C(C)C)c3n2)[C@H](C)C1)C([2H])([2H])[2H]` [Example 838], the IC50 on human TLR7 was 0.6 nM; against human TLR8 (TLR8 IC50, HEK-Blue human TLR8 cells), 3.5 nM; against human TLR9 (TLR9 IC50, HEK-Blue human TLR9 cells) it was 9890 nM.
Turning to `Cc1c(-c2[nH]c3ccc(N4C[C@H](C)N(C(=O)CN(C)C)C[C@H]4C)nc3c2C(C)C)cn2ncnc2c1C` [Example 839], the IC50 at human TLR7 is 0.37 nM; at human TLR8 (setting [1]), 3.2 nM; on human TLR9 (setting [2]) it was 7870 nM.
In the case of `Cc1c(-c2[nH]c3ccc(N4C[C@H](C)N(C(=O)CCN(C)C)C[C@H]4C)nc3c2C(C)C)cn2ncnc2c1C` [Example 840], the IC50 against human TLR7 turned out to be 0.38 nM; on human TLR8 (setting [1]) it was 1.5 nM; on human TLR9 (setting [2]), 7400 nM.
For `Cc1c(-c2[nH]c3ccc(N4C[C@H](C)N(C(C)C)C[C@H]4C)nc3c2C(C)C)cn2ncnc2c1C` [Example 841] the same measures were 5.6 nM, 28 nM and 14300 nM.
On to `Cc1c(-c2[nH]c3ccc(N4C[C@@H](C)N(C(=O)CN(C)C)C[C@@H]4C)nc3c2C(C)C)cn2ncnc2c1C` [Example 842], for which the results for the IC50 against human TLR7, on human TLR8 (setting [1]) and at human TLR9 (setting [2]) were 0.38 nM, 0.47 nM and 6920 nM, respectively.
Regarding `Cc1c(-c2[nH]c3ccc(N4C[C@@H](C)N(C(=O)CCN(C)C)C[C@@H]4C)nc3c2C(C)C)cn2ncnc2c1C` [Example 843], the IC50 on human TLR7 came out at 0.52 nM; at human TLR8 (setting [1]) it was 1.4 nM; at human TLR9 (setting [2]), 5480 nM.
In the case of `Cc1c(-c2[nH]c3ccc(N4C[C@@H](C)N(C(C)C)C[C@@H]4C)nc3c2C(C)C)cn2ncnc2c1C` [Example 844], the figures for the IC50 against human TLR7, at human TLR8 (setting [1]) and on human TLR9 (setting [2]) were 2 nM, 11 nM and 8820 nM, respectively.
For `Cc1c(-c2[nH]c3ccc(N4C[C@H](C)N(CCCS(C)(=O)=O)C[C@H]4C)nc3c2C(C)C)cn2ncnc2c1C` [Example 845] the same measures were 7.2 nM, 14 nM and 21300 nM.
For `Cc1c(-c2[nH]c3ccc(N4C[C@H](C)N(CCC(N)=O)C[C@H]4C)nc3c2C(C)C)cn2ncnc2c1C` [Example 847] the same measures were 4.9 nM, 8.3 nM and 22500 nM.
For `Cc1c(-c2[nH]c3ccc(N4C[C@@H](C)N(CCC(N)=O)C[C@@H]4C)nc3c2C(C)C)cn2ncnc2c1C` [Example 848], in that order: 1.2 nM, 2.2 nM and 17500 nM.
For the compound `Cc1c(-c2[nH]c3ccc(N4CCN(C(=O)CCN(C)C)[C@H](C)C4)nc3c2C(C)C)cn2ncnc2c1C` [Example 850], the values for the IC50 at human TLR7, at human TLR8 (setting [1]) and on human TLR9 (setting [2]) were 0.72 nM, 1.6 nM and 6540 nM, respectively.
As for `Cc1c(-c2[nH]c3ccc(N4CCN(C(C)C)[C@H](C)C4)nc3c2C(C)C)cn2ncnc2c1C` [Example 851], the IC50 is 5.9 nM against human TLR7, 2.2 nM at human TLR8 (setting [1]) and 9980 nM at human TLR9 (setting [2]).
As to `Cc1c(-c2[nH]c3ccc(N4CCN(CCC(N)=O)[C@H](C)C4)nc3c2C(C)C)cn2ncnc2c1C` [Example 852], the IC50 on human TLR7 turned out to be 5.2 nM; at human TLR8 (setting [1]), 0.82 nM; at human TLR9 (setting [2]), 16200 nM.
For `Cc1c(-c2[nH]c3ccc(N4CCN(C(=O)[C@H](C)N(C)C)CC4)nc3c2C(C)C)cn2ncnc2c1C` [Example 853], in that order: 0.51 nM, 0.66 nM and 9570 nM.
Consider `Cc1c(-c2[nH]c3ccc(N4CCN(C(=O)C5(N(C)C)CC5)CC4)nc3c2C(C)C)cn2ncnc2c1C` [Example 854], for which the values for the concentration for half-maximal inhibition (IC50) against human TLR7, on human TLR8 (setting [1]) and on human TLR9 (setting [2]) were 11 nM, 5 nM and 32300 nM, respectively.
For `Cc1c(-c2[nH]c3ccc(N4CCN(CCCS(C)(=O)=O)[C@H](C)C4)nc3c2C(C)C)cn2ncnc2c1C` [Example 856], in that order: 7.3 nM, 0.46 nM and 27100 nM.
